Measurements as given in patent US20230062119A1, “USE OF BIOMARKERS IN IDENTIFYING PATIENTS THAT WILL BE RESPONSIVE TO TREATMENT WITH A PRMT5 INHIBITOR” (Merck Sharp & Dohme LLC, priority 2019, published 2023).
Structures can show the parent of a compound that is named as a salt. Where two headings read alike, the source gives them in different places.

Assays:
[1] = system: symmetric dimethylation of arginine (SDMA) of PRMT5 substrates in MCF-7 cells; test: PRMT5 Cell Target Engagement (TE) Assay; type: cell-based; details: Homo sapiens, MCF7, 72 h, treated for 3 days, nuclear SDMA by high content imaging, top concentration 10000 nM
From the text: The PRMT5 TE assay is a biomarker assay for identifying compounds that inhibit symmetric dimethylation of arginine (SDMA) of PRMT5 substrates. The following substrates have been reported for PRMT5: Histone H2A and H4 R3, Histone H3 R2, Histone H3 R8, spliceosome Sm proteins, ribosomal protein RPS10, p53, FEN1, nucleoplasmin, nucleolin, EGFR and EBNA. The assay will focus on detecting symmetrically dimethylated nuclear proteins using high content imaging technology. Detection of the expression of symmetrically dimethylated nuclear proteins is through a mixture of primary rabbit monoclonal antibodies to SDMA (CST 13222), which in turn recognized by an Alexafluor 488 dye-conjugated anti-rabbit IgG secondary antibody. The IN Cell Analyzer 2200 or Opera-Phenix measures nuclear Alexafluor 488 fluorescent dye intensity that is directly related to the level of expression of symmetrically dimethylated nuclear proteins at the single cell level. Nuclear AF488 dye intensities are compared to the mean value for DMSO treated cells (MIN) to report percent of inhibition for each compound-treated well.
In this assay, the cell potency (EC50) of each compound was determined from a ten point (1:3 serial dilution; top compound concentration of 10000 nM) titration curve using the following outlined procedure. Each well of a BD falcon collagen coated black/clear bottom 384-well plate was seeded with 4000 MCF-7 cells in 30 μl media and allowed to attach for 5 hours. Media is ATCC-formulated Eagle's Minimum Essential Medium, Catalog No. 30-2003. The following components were added to the base medium: 0.01 mg/mL human recombinant insulin; fetal bovine serum to a final concentration of 10%. Additional 30 µl of media containing 2× compounds were added to each well. Cells were treated for 3 days in 37° C. CO2 incubator. On day 3, cells were fixed with Cytofix, permeabilized with 0.4% Triton-X-100/Cytofix, and washed with D-PBS without Ca/Mg. Cells were blocked with Licor Odessey blocking reagent for 1 hour at room temperature, followed by incubation with anti-SDMA (1:1000) antibody at 4° C. overnight. 1° antibody was removed, followed by three washings with DPBS without Ca/Mg and 0.05% Tween20. Hoechst (5 μg/mL), Cell Mask deep stain (1:2000) and Alexa488-conjugated goat anti-rabbit IgG (2 μg/mL) was added for 1 hour at room temperature. A final washing step (three washes) was performed before sealing plate for imaging on In Cell Analyzer 2200 or Opera-Phenix. Images from analyzer were uploaded to Columbus for image analysis. IC50 values were determined by 4 parameters robust fit of percent fluorescence units vs. (Log 10) compound concentrations.

[2] = biological target: T1, Full-length (FL)-PRMT5-MEP50 enzyme complex (Homo sapiens, UniProt O14744); test: PRMT5-MEP50 Enzyme Methylation Assay; type: biochemical; details: 1.0 nM PRMT5-MEP50, 75 nM biotinylated peptide, 15 μM SAM
T1 construct: Full-length (FL)-PRMT5-MEP50 enzyme complex (recombinant proteins from baculovirus-transfected Sf21 cells: FL-PRMT5; MW=73837 kDa and FL-MEP50; MW=38614); made in house; host or cells: baculovirus-transfected Sf21 insect cells
Outline: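 Compound was pre-incubated 60 min at 37°C with 1.0 nM enzyme and 15 μM SAM (final) in 50 mM Bicine pH 8.0, then 75 nM biotinylated H4R3(Me1) peptide was added and reacted 150 min; twenty-point 1:2 titration from 100000 nM, 1% DMSO. Formic acid quench; SAMDI mass spectrometry measured Me1-to-Me2 conversion, EC50 by 4- or 7-parameter regression.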

[3] = one EC50: 4 parameters single site sigmoidal model, EC50 1: first value of 7 parameters biphasic model, read-out: Enzyme Methylation Assay (EC50 or EC50 1)
[4] = second EC50 of 7 parameters biphasic model, read-out: Enzyme Methylation Assay (EC50 2)

T1 sequence (O14744 whole entry): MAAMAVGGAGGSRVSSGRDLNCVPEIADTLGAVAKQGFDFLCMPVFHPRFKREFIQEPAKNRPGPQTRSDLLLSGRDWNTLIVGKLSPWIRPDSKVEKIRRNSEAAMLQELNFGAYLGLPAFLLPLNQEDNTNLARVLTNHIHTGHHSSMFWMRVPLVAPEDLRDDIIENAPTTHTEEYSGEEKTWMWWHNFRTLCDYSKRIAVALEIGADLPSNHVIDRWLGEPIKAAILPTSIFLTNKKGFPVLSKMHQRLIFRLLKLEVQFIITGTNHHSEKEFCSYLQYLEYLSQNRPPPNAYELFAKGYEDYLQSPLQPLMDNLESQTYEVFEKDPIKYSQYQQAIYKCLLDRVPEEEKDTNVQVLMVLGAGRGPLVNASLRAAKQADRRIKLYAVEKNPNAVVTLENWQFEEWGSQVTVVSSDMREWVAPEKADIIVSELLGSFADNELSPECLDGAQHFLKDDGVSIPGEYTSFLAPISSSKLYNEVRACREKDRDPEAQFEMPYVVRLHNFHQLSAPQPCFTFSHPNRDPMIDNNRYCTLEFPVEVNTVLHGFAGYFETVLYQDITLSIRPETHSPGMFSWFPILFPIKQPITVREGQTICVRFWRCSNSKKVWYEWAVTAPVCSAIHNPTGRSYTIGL
T1 sequence (Q9BQA1 whole entry partner): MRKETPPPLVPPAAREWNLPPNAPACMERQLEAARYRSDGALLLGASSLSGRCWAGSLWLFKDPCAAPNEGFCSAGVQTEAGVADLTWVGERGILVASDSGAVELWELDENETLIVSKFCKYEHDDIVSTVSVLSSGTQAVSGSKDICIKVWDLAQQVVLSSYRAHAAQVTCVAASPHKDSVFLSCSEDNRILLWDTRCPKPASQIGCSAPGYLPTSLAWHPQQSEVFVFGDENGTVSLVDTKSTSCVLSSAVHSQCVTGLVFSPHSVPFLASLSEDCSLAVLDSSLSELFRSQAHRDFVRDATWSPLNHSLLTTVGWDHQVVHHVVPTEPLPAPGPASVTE

Row | Compound | EC50 [1] [nM] | EC50 [2, 3] [nM] | EC50 [2, 4] [nM]
1 | Nc1nc2cc(C[C@@H]3CC[C@@]4(O)[C@@H]3O[C@@H](n3cc(C5CC5)c5c(N)ncnc53)[C@@H]4O)ccc2cc1F [Example 50, (2R,3R,3aS,6S,6aR)-2-(4-amino-5-cyclopropyl-7H-pyrrolo[2,3-d]pyrimidin-7-yl)-6-[(2-amino-3-fluoroquinolin-7-yl)methyl]hexahydro-3aH-cyclopenta[b]furan-3,3a-diol] | 0.7 | 0.3 | –
2 | Cc1cn([C@@H]2O[C@@H]3[C@@H](Oc4ccc5cc(Cl)c(N)nc5c4)CC[C@]3(O)[C@H]2O)c2ncnc(N)c12 [Example 64, (2R,3R,3aS,6S,6aR)-6-((2-amino-3-chloroquinolin-7-yl)oxy)-2-(4-amino-5-methyl-7H-pyrrolo[2,3-d]pyrimidin-7-yl)hexahydro-3aH-cyclopenta[b]furan-3,3a-diol 2,2,2-trifluoroacetate] | 16.2 | 0.3 | –
3 | Cc1cn([C@@H]2O[C@@H]3[C@@H](Oc4ccc5cc(F)c(N)nc5c4)CC[C@]3(O)[C@H]2O)c2ncnc(N)c12 [Example 65, (2R,3R,3aS,6S,6aR)-6-((2-amino-3-fluoroquinolin-7-yl)oxy)-2-(4-amino-5-methyl-7H-pyrrolo[2,3-d]pyrimidin-7-yl)hexahydro-3aH-cyclopenta[b]furan-3,3a-diol 2,2,2-trifluoroacetate] | 179 | 0.2 | 200
4 | CCc1cn([C@@H]2O[C@@H]3[C@@H](Oc4ccc5cc(Br)c(N)nc5c4)CC[C@]3(O)[C@H]2O)c2ncnc(N)c12 [Example 69, (2R,3R,3aS,6S,6aR)-6-((2-amino-3-bromoquinolin-7-yl)oxy)-2-(4-amino-5-ethyl-7H-pyrrolo[2,3-d]pyrimidin-7-yl)hexahydro-3aH-cyclopenta[b]furan-3,3a-diol] | 103 | 1.1 | –
5 | Nc1nc2cc(O[C@H]3CC[C@@]4(O)[C@@H]3O[C@@H](n3ccc5c(C(F)F)ncnc53)[C@@H]4O)ccc2cc1Br [Example 79, (2R,3R,3aS,6S,6aR)-6-((2-amino-3-bromoquinolin-7-yl)oxy)-2-(4-(difluoromethyl)-7H-pyrrolo[2,3-d]pyrimidin-7-yl)hexahydro-3aH-cyclopenta[b]furan-3,3a-diol] | 52.5 | 2.9 | –
6 | CCc1ncnc2c1ccn2[C@@H]1O[C@@H]2[C@@H](Oc3ccc4cc(Br)c(N)nc4c3)CC[C@]2(O)[C@H]1O [Example 82, 2,2,2-trifluoroacetate] | 87.2 | 0.7 | 75.9
7 | Nc1nc2cc(CC[C@]3(CF)C[C@@H](n4ccc5c(N)ncnc54)[C@H](O)[C@@H]3O)ccc2cc1Br [Example 102, (1S,2R,5R)-3-(2-(2-amino-3-bromoquinolin-7-yl)ethyl)-5-(4-amino-7H-pyrrolo[2,3-d]pyrimidin-7-yl)-3-(fluoromethyl)cyclopentane-1,2-diol] | 2 | 0.3 | –
8 | Nc1ncc2ccn([C@@H]3O[C@@H]4[C@@H](Oc5ccc6cc(Br)c(N)nc6c5)CC[C@]4(O)[C@H]3O)c2n1 [compound 46, (2R,3R,3aS,6S,6aR)-6-((2-amino-3-bromoquinolin-7-yl)oxy)-2-(2-amino-7H-pyrrolo[2,3-d]pyrimidin-7-yl)hexahydro-3aH-cyclopenta[b]furan-3,3a-diol dihydrochloride] | 16.8 | 0.5 | –
